Assay results as given in patent publication US20250049922A1, “PHARMACEUTICAL COMPOSITION COMPRISING P-BORONOPHENYLALANINE” (priority 2021, published 2025).

Experiment: Solubilization of BPA in aqueous solutions, visual inspection of dissolution
Assay type: physicochemical
Conditions: RT, after 2 hours
Method: BPA (L-p-boronophenylalanine, Katchem, Praha, Czech Republic) was weighed to a set of test tubes, 15 mg each (72 μmol). At room temperature (RT), 0.5 ml each of various aqueous solutions as listed below, were added into parallel test tubes and mixed vigorously. After 2 hours, the results of visual inspection of BPA dissolution and pH were as follows: […]

N[C@@H](Cc1ccc(B(O)O)cc1)C(=O)O [BPA, L-p-boronophenylalanine]
visual inspection of BPA dissolution (15 mg BPA in 0.5 ml 0.12 M L-histidine (neutral pH)): no dissolution | visual inspection of BPA dissolution (15 mg BPA in 0.5 ml 0.5 M L-arginine (pH over 11)): partial dissolution | visual inspection of BPA dissolution (15 mg BPA in 0.5 ml 0.5 M L-serine (neutral pH)): no dissolution | visual inspection of BPA dissolution (15 mg BPA in 0.5 ml 0.5 M NaOH): complete dissolution | visual inspection of BPA dissolution (15 mg BPA in 0.5 ml 0.5 M Tris (Trizma base, pH over 10)): complete dissolution | visual inspection of BPA dissolution (15 mg BPA in 0.5 ml 0.5 M Tris-HCl (pH 8)): partial dissolution | visual inspection of BPA dissolution (15 mg BPA in 0.5 ml 0.5 M propylene glycol): no dissolution | visual inspection of BPA dissolution (15 mg BPA in 0.5 ml 0.5 M sodium-potassium tartrate (neutral pH)): partial dissolution | visual inspection of BPA dissolution (15 mg BPA in 0.5 ml 96% ethanol (v/v)): no dissolution | visual inspection of BPA dissolution (15 mg BPA in 0.5 ml deionized water): no dissolution | visual inspection of BPA dissolution (15 mg BPA, 0.25 ml 0.5 M NaOH followed by 0.5 ml 0.5 M L-serine): complete dissolution
